Experiment [1] relates to SARS-CoV-2 Omicron. It counts as cell-based.
The subject of experiment [2] is SARS-CoV-2 Delta. Format: cell-based.

Values joined by “and” are separate entries in the source; they are usually repeats but may differ in a detail not shown here. Identical values can stand only once. Counter-ions that a name gives are not always drawn.

Consider `CCC(CC)COC(=O)[C@H](C)N[P@](=O)(OC[C@H]1O[C@@](C#N)(c2ccc3c(N)ncnn23)[C@H](O)[C@@H]1O)Oc1ccccc1` [Remdesivir], for which the EC50 in experiment [1] was 1500 ± 200 nM; in experiment [2] it was 850 nM and 1110 nM.
For `Cc1c(O)cccc1C(=O)N[C@@H](CSc1ccccc1)[C@H](O)CN1C[C@H]2CCCC[C@H]2C[C@H]1C(=O)NC(C)(C)C` [nelfinavir, Nelfinavir Mesylate], the EC50 in experiment [1] was 2030 nM and 1730 nM; in experiment [2] it was 2090 nM and 1760 nM.
